Values quoted from earlier work as cited in patent publication US20080003219A1, “DELIVERY OF AN OCULAR AGENT” (MINU, L.L.C., priority 2005, published 2008).

Key:
[1] = tested on: chronic myeloid leukemia (CML); details: CML patients who initially respond
[2] = tested on: neovascular age-related macular degeneration; details: 1 mg single intravitreal injection
[3] = tested on: choroidal neovascularization; details: intravitreal injection in combination with verteporfin PDT, compared with PDT only

## Cc1ccc(NC(=O)c2ccc(CN3CCN(C)CC3)cc2)cc1Nc1nccc(-c2cccnc2)n1 [imatinib]
[1]
  initially responding CML patients who subsequently develop drug resistance: about 10%

## bevacizumab
[2]
  observed inflammation: no observed inflammation
[2]; after one week
  subretinal fluid: resolution of subretinal fluid after one week
[2]; duration of improvement
  macular appearance: improved macular appearance maintained for at least four weeks

B1: ranibizumab (antibody, chains of the INN, looked up, V domains shown)
VH: EVQLVESGGGLVQPGGSLRLSCAASGYDFTHYGMNWVRQAPGKGLEWVGWINTYTGEPTYAADFKRRFTFSLDTSKSTAYLQMNSLRAEDTAVYYCAKYPYYYGTSHWYFDVWGQGTLVTVSS
VL: DIQLTQSPSSLSASVGDRVTITCSASQDISNYLNWYQQKPGKAPKVLIYFTSSLHSGVPSRFSGSGSGTDFTLTISSLQPEDFATYYCQQYSTVPWTFGQGTKVEIK
modifications: Fab
[3]
  reduction in angiographic leakage: greater reduction in angiographic leakage than PDT only
